Data as given in US10106534B2 (CELGENE QUANTICEL RESEARCH, INC., priority 2014, dated 2018).

Tests used:
JMJD3 = JMJD3 (Homo sapiens, UniProt O15054); assay: In vitro enzyme inhibition assay for JMJD3 activity (TR-FRET); type: biochemical
Protocol: This assay determines the ability of a test compound to inhibit JMJD3 demethylase activity.
The enzymatic assay of JMJD3 activity is based upon Time Resolved-Fluorescence Resonance Energy Transfer (TR-FRET) detection. […] Reaction product was determined quantitatively by TR-FRET after the addition of detection reagent Phycolink Streptavidin-allophycocyanin (Prozyme) and Europium-anti-di-methylated histone H3 lysine 27 (H3K27me2) antibody (PerkinElmer) in the presence of 5 mM EDTA in LANCE detection buffer (PerkinElmer) at a final concentration of 50 nM and 1 nM, respectively.
The reaction mixture was incubated at room temperature for 30 minutes, and terminated by the addition of 6 μL of 5 mM EDTA in LANCE detection buffer containing 100 nM Phycolink Streptavidin-allophycocyanin and 2 nM Europium-anti-H3K27me2 antibody.

JMJD2C = JMJD2C (Homo sapiens (Human), UniProt Q9H3R0); assay: In vitro enzyme inhibition assay for JMJD2C activity (TR-FRET); type: biochemical
In short: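 Demethylation product H3K9me2 quantified by TR-FRET ratio 665/615 after EDTA stop and 1 h with Eu-anti-H3K9me2 and streptavidin-APC; IC50 by curve fit. Reaction: 0.3 nM JMJD2C (AA 2-372, baculovirus), 2 μM α-ketoglutarate, 300 nM biotin-H3K9me3 peptide, pH 7.3 HEPES with Fe(II)/ascorbate, 30 min room temperature.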

[1] = system: KYSE-150 esophageal carcinoma cell line; assay: In vitro cell-based assay: cellular proliferation via BrdU incorporation (ELISA); design: species or system human; settings: Homo sapiens, KYSE-150, 168 hours compound incubation
In short: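 BrdU incorporation during S-phase, detected colorimetrically at 450 nm by peroxidase ELISA, measured proliferation after 168 h compound exposure.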

JMJD2C, sequence (Q9H3R0 2-372): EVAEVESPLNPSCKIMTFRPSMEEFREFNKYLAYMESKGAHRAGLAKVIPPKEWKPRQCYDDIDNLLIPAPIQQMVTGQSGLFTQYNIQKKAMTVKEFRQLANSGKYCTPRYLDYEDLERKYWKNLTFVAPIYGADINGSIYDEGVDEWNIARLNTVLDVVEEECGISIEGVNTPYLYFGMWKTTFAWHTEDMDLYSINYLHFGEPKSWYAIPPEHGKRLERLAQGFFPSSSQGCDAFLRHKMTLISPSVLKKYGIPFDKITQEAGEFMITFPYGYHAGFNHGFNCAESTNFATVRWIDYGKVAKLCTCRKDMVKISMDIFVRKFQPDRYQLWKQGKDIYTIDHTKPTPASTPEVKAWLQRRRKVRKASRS

Compound	IC50 (JMJD3) [nM]	IC50 (JMJD2C) [nM]	fold more potent for JMJD3 than the R-enantiomer (JMJD3; S-enantiomer vs R-enantiomer) [fold]	IC50 [1] [nM]
3-({[(1R)-6-[benzyl(methyl)amino]-1,2,3,4-tetrahydronaphthalen-1-yl]methyl}amino)pyridine-4-carboxylic acid [Example 130]	1000 to 10000	100 to 1000	–	–
CN(c1ccccc1)c1ccc2c(c1)CCCC2CNc1cnccc1C(=O)O (stereo in doubt) [Example 2, 3-({[(1S)-6-[methyl(phenyl)amino]-1,2,3,4-tetrahydronaphthalen-1-yl]methyl}amino)pyridine-4-carboxylic acid]	1000 to 10000	100 to 1000	–	–
CN(c1ccccc1)c1ccc2c(c1)CCC[C@@H]2CNc1cnccc1C(=O)O [Example 1, 3-({[(1S)-6-[methyl(phenyl)amino]-1,2,3,4-tetrahydronaphthalen-1-yl]methyl}amino)pyridine-4-carboxylic acid]	1000 to 10000	1000 to 10000	–	–
Cc1cccc(-c2ccc3c(c2)OCC[C@@H]3CNc2cnccc2C(=O)O)c1 [Example 29, 3-({[(4S)-7-(3-methylphenyl)-3,4-dihydro-2H-1-benzopyran-4-yl]methyl}amino)pyridine-4-carboxylic acid]	100 to 1000	1000 to 10000	–	–
Cc1ccc(-c2ccc3c(c2)OCC[C@@H]3CNc2cnccc2C(=O)O)cc1 [Example 31, 3-({[(4S)-7-(4-methylphenyl)-3,4-dihydro-2H-1-benzopyran-4-yl]methyl}amino)pyridine-4-carboxylic acid]	100 to 1000	1000 to 10000	–	–
O=C(O)c1ccncc1NC[C@H]1CCOc2cc(-c3ccsc3)ccc21 [Example 33, 3-({[(4S)-7-(thiophen-3-yl)-3,4-dihydro-2H-1-benzopyran-4-yl]methyl}amino)pyridine-4-carboxylic acid]	< 100	1000 to 10000	–	–
O=C(O)c1ccncc1NC[C@H]1CCOc2cc(-c3ccccc3)ccc21 [Example 83 of U.S. Pat. No. 8,952,151, 3-({[(4S)-7-phenyl-3,4-dihydro-2H-1-benzopyran-4-yl]methyl}amino)pyridine-4-carboxylic acid, reference compound]	–	–	> 100	–
CCOc1ccc(N(C)c2ccc3c(c2)OCC[C@H]3CNc2cnccc2C(=O)O)cc1 [Example 186, 3-({[(4R)-7-[(4-ethoxyphenyl)(methyl)amino]-3,4-dihydro-2H-1-benzopyran-4-yl]methyl}amino)pyridine-4-carboxylic acid]	–	100 to 1000	–	≤ 100
CN(c1ccc(-n2cccn2)cc1)c1ccc2c(c1)CCC[C@H]2CNc1cnccc1C(=O)O [Example 188, 3-({[(1R)-6-{methyl[4-(1H-pyrazol-1-yl)phenyl]amino}-1,2,3,4-tetrahydronaphthalen-1-yl]methyl}amino)pyridine-4-carboxylic acid]	–	100 to 1000	–	≤ 100
CN(c1ccc(-n2cccn2)cc1)c1ccc2c(c1)OCC[C@H]2CNc1cnccc1C(=O)O [Example 189, 3-({[(4R)-7-{methyl[4-(1H-pyrazol-1-yl)phenyl]amino}-3,4-dihydro-2H-1-benzopyran-4-yl]methyl}amino)pyridine-4-carboxylic acid]	–	100 to 1000	–	100 to 1000
CN(c1ccc(N2CC(F)(F)C2)cc1)c1ccc2c(c1)OCC[C@H]2CNc1cnccc1C(=O)O [Example 196, 3-({[(4R)-7-{[4-(3,3-difluoroazetidin-1-yl)phenyl](methyl)amino}-3,4-dihydro-2H-1-benzopyran-4-yl]methyl}amino)pyridine-4-carboxylic acid]	–	100 to 1000	–	≤ 100
COCCOc1ccc(N(C)c2ccc3c(c2)CCC[C@H]3CNc2cnccc2C(=O)O)cc1 [Example 197, 3-({[(1R)-6-{[4-(2-methoxyethoxy)phenyl](methyl)amino}-1,2,3,4-tetrahydronaphthalen-1-yl]methyl}amino)pyridine-4-carboxylic acid]	–	100 to 1000	–	≤ 100
CC(c1ccccc1)c1ccc2c(c1)OCC[C@H]2CNc1cnccc1C(=O)O (stereo partly drawn) [Example 198, 3-({[(4R)-7-(1-phenylethyl)-3,4-dihydro-2H-1-benzopyran-4-yl]methyl}amino)pyridine-4-carboxylic acid]	–	100 to 1000	–	≤ 100
CC(C)c1ccc(N(C)c2ccc3c(c2)OCC[C@H]3CNc2cnccc2C(=O)O)nc1 [Example 199, 3-({[(4R)-7-{methyl[5-(propan-2-yl)pyridin-2-yl]amino}-3,4-dihydro-2H-1-benzopyran-4-yl]methyl}amino)pyridine-4-carboxylic acid]	–	100 to 1000	–	≤ 100
CN(c1ccc(N2CC(O)C2)cc1)c1ccc2c(c1)CCC[C@H]2CNc1cnccc1C(=O)O [Example 200, 3-({[(1R)-6-{[4-(3-hydroxyazetidin-1-yl)phenyl](methyl)amino}-1,2,3,4-tetrahydronaphthalen-1-yl]methyl}amino)pyridine-4-carboxylic acid]	–	100 to 1000	–	100 to 1000
CN(c1ccc(C2=CCOCC2)cc1)c1ccc2c(c1)OCC[C@H]2CNc1cnccc1C(=O)O [Example 201, 3-({[(4R)-7-{[4-(3,6-dihydro-2H-pyran-4-yl)phenyl](methyl)amino}-3,4-dihydro-2H-1-benzopyran-4-yl]methyl}amino)pyridine-4-carboxylic acid]	–	100 to 1000	–	≤ 100
O=C(O)c1ccncc1NC[C@@H]1CCOc2cc(C3(c4ccccc4)CC3)ccc21 [Example 203, 3-({[(4R)-7-(1-phenylcyclopropyl)-3,4-dihydro-2H-1-benzopyran-4-yl]methyl}amino)pyridine-4-carboxylic acid]	–	100 to 1000	–	100 to 1000
CN1CC=C(c2ccc(N(C)c3ccc4c(c3)OCC[C@H]4CNc3cnccc3C(=O)O)cc2)CC1 [Example 204, 3-({[(4R)-7-{methyl[4-(1-methyl-1,2,3,6-tetrahydropyridin-4-yl)phenyl]amino}-3,4-dihydro-2H-1-benzopyran-4-yl]methyl}amino)pyridine-4-carboxylic acid]	–	≤ 100	–	> 10000
CN1CCC(c2ccc(N(C)c3ccc4c(c3)OCC[C@H]4CNc3cnccc3C(=O)O)cc2)CC1 [Example 205, 3-({[(4R)-7-{methyl[4-(1-methylpiperidin-4-yl)phenyl]amino}-3,4-dihydro-2H-1-benzopyran-4-yl]methyl}amino)pyridine-4-carboxylic acid]	–	≤ 100	–	> 10000
Cc1ccc(N(C)c2ccc3c(c2)OCC[C@H]3CNc2cnccc2C(=O)O)cc1C [Example 206, 3-({[(4R)-7-[(3,4-dimethylphenyl)(methyl)amino]-3,4-dihydro-2H-1-benzopyran-4-yl]methyl}amino)pyridine-4-carboxylic acid]	–	100 to 1000	–	≤ 100
CN(c1ccc(CCO)cc1)c1ccc2c(c1)OCC[C@H]2CNc1cnccc1C(=O)O [Example 207, 3-({[(4R)-7-{[4-(2-hydroxyethyl)phenyl](methyl)amino}-3,4-dihydro-2H-1-benzopyran-4-yl]methyl}amino)pyridine-4-carboxylic acid]	–	100 to 1000	–	100 to 1000
CCCc1ccc(N(C)c2ccc3c(c2)OCC[C@H]3CNc2cnccc2C(=O)O)cc1 [Example 208, 3-({[(4R)-7-[methyl(4-propylphenyl)amino]-3,4-dihydro-2H-1-benzopyran-4-yl]methyl}amino)pyridine-4-carboxylic acid]	–	1000 to 10000	–	≤ 100
CC(C)Oc1ccc(N(C)c2ccc3c(c2)OCC[C@H]3CNc2cnccc2C(=O)O)cc1 [Example 210, 3-({[(4R)-7-{methyl[4-(propan-2-yloxy)phenyl]amino}-3,4-dihydro-2H-1-benzopyran-4-yl]methyl}amino)pyridine-4-carboxylic acid]	–	100 to 1000	–	≤ 100
CN(c1ccc(OCC2CC2)cc1)c1ccc2c(c1)OCC[C@H]2CNc1cnccc1C(=O)O [Example 211, 3-({[(4R)-7-{[4-(cyclopropylmethoxy)phenyl](methyl)amino}-3,4-dihydro-2H-1-benzopyran-4-yl]methyl}amino)pyridine-4-carboxylic acid]	–	100 to 1000	–	≤ 100
CCCOc1ccc(N(C)c2ccc3c(c2)OCC[C@H]3CNc2cnccc2C(=O)O)cc1 [Example 212, 3-({[(4R)-7-[methyl(4-propoxyphenyl)amino]-3,4-dihydro-2H-1-benzopyran-4-yl]methyl}amino)pyridine-4-carboxylic acid]	–	100 to 1000	–	≤ 100
CN(c1ccc(OC2CC2)cc1)c1ccc2c(c1)OCC[C@H]2CNc1cnccc1C(=O)O [Example 213, 3-({[(4R)-7-[(4-cyclopropoxyphenyl)(methyl)amino]-3,4-dihydro-2H-1-benzopyran-4-yl]methyl}amino)pyridine-4-carboxylic acid]	–	100 to 1000	–	≤ 100
CN(c1ccc(OCC(F)(F)F)cc1)c1ccc2c(c1)OCC[C@H]2CNc1cnccc1C(=O)O [Example 214, 3-({[(4R)-7-{methyl[4-(2,2,2-trifluoroethoxy)phenyl]amino}-3,4-dihydro-2H-1-benzopyran-4-yl]methyl}amino)pyridine-4-carboxylic acid]	–	100 to 1000	–	≤ 100
